These are literature values, as cited in patent publication US20020192255A1, “Liquid emanator device to deliver self-suspending insecticide droplets” (priority 2001, published 2002).

The conditions of this series: thermal decomposition temperature.

With `C#CCC1=C(C)C(OC(=O)C2C(C=C(C)C)C2(C)C)CC1=O` (mixture of isomers) [ETOC-TG, (+)-2-methyl4-oxo-3-(2-propynyl)-2-cyclopentenyl (+)-cis/trans-chrysanthemate], the “decomposition of the chemical occurs above” value is “above 608 ° F”.

With `CC1(C)[C@H](C=C(Cl)Cl)[C@H]1C(=O)OCc1c(F)c(F)cc(F)c1F` [transfluthrin], the “decomposition of the chemical occurs above” value is recorded as “above 392 ° F”.
